Patent publication US7491819B1 (priority 2004, dated 2009)

Biological target: T1, HIV-integrase (Human immunodeficiency virus type 1 group M subtype B, UniProt P12497)
T1 construct: Recombinant integrase (0.26 ng) was incubated with the beads
Assay: HIV-Integrase Inhibition Activity (SPA bead strand-transfer assay)
Format: biochemical
Conditions: Table 1; read-out: Activity (HIV-integrase inhibition, IC50 class)
In short: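 Strand-transfer read-out: CPM from P33-labelled target DNA (0.1 fmol) joined to bead-bound biotin substrate DNA (5 pmole), with EDTA stop at 10 mM final. Integrase (0.26 ng) prebound to streptavidin SPA beads 90 min, 37° C, and washed before adding inhibitor.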

Row | Structure (SMILES) | IC50 [nM]
1 | COC(=O)c1cc(F)ccc1CNC(=O)c1nc2n(c(=O)c1O)CCOC2(C)C [Example 47, Benzoic acid, 5-fluoro-2-[[[(4,6,7,9-tetrahydro-3-hydroxy-9,9-dimethyl-4-oxopyrimido[2,1-c][1,4]oxazin-2-yl)carbonyl]amino]methyl]-, methyl ester] | 2 to 100
2 | CC1(C)OCCn2c1nc(C(=O)NCc1ccccc1-c1ccc(F)c(F)c1)c(O)c2=O [Example 188, Pyrimido[2,1-c][1,4]oxazine-2-carboxamide, N-[(3′,4′-difluoro[1,1′-biphenyl]-2-yl)methyl]-4,6,7,9-tetrahydro-3-hydroxy-9,9-dimethyl-4-oxo-] | 2 to 100
3 | CC1(C)OCCn2c1nc(C(=O)NCc1ccc(F)cc1-c1cccc(=O)[nH]1)c(O)c2=O [Example 80, Pyrimido[2,1-c][1,4]oxazine-2-carboxamide, N-[[2-(1,6-dihydro-6-oxo-2-pyridinyl)-4-fluorophenyl]methyl]-4,6,7,9-tetrahydro-3-hydroxy-9,9-dimethyl-4-oxo-] | 2 to 100
4 | CC1(C)OCCn2c1nc(C(=O)NCc1ccccc1-c1ccc(C#N)cc1)c(O)c2=O [Example 166, Pyrimido[2,1-c][1,4]oxazine-2-carboxamide, N-[(4′-cyano[1,1′-biphenyl]-2-yl)methyl]-4,6,7,9-tetrahydro-3-hydroxy-9,9-dimethyl-4-oxo-] | 100 to 1000
5 | CC1(C)OCCn2c1nc(C(=O)NCc1ccc(F)cc1S(C)(=O)=O)c(O)c2=O [Example 101, Pyrimido[2,1-c][1,4]oxazine-2-carboxamide, N-[[4-fluoro-2-(methylsulfonyl)phenyl]methyl]-4,6,7,9-tetrahydro-3-hydroxy-9,9-dimethyl-4-oxo-] | 2 to 100
6 | CON(Cc1ccc(F)cc1)C(=O)c1nc2n(c(=O)c1O)CCOC2(C)C [Example 214, Pyrimido[2,1-c][1,4]oxazine-2-carboxamide, N-[(4-fluorophenyl)methyl]-4,6,7,9-tetrahydro-3-hydroxy-N-methoxy-9,9-dimethyl-4-oxo-] | > 1000
7 | CC1(C)OCCn2c1nc(C(=O)NCc1ccccc1O)c(O)c2=O [Example 258, Pyrimido[2,1-c][1,4]oxazine-2-carboxamide, 4,6,7,9-tetrahydro-3-hydroxy-N-[(2-hydroxyphenyl)methyl]-9,9-dimethyl-4-oxo-] | 2 to 100
8 | CC1(C)OCCn2c1nc(C(=O)NCc1ccc(F)cc1N1CCCCS1(=O)=O)c(O)c2=O [Example 27, Pyrimido[2,1-c][1,4]oxazine-2-carboxamide, N-[[4-fluoro-2-(tetrahydro-1,1-dioxido-2H-1,2-thiazin-2-yl)phenyl]methyl]-4,6,7,9-tetrahydro-3-hydroxy-9,9-dimethyl-4-oxo-] | 2 to 100
9 | COc1cc(CNC(=O)c2nc3n(c(=O)c2O)CCOC3(C)C)ccc1F [Example 245, Pyrimido[2,1-c][1,4]oxazine-2-carboxamide, N-[(4-fluoro-3-methoxyphenyl)methyl]-4,6,7,9-tetrahydro-3-hydroxy-9,9-dimethyl-4-oxo-] | 2 to 100
10 | CC1(C)OCCn2c1nc(C(=O)NCc1cc(F)ccc1F)c(O)c2=O [Example 224, Pyrimido[2,1-c][1,4]oxazine-2-carboxamide, N-[(2,5-difluorophenyl)methyl]-4,6,7,9-tetrahydro-3-hydroxy-9,9-dimethyl-4-oxo-] | 2 to 100
11 | CC(C)Oc1ccccc1CNC(=O)c1nc2n(c(=O)c1O)CCOC2(C)C [Example 262, Pyrimido[2,1-c][1,4]oxazine-2-carboxamide, 4,6,7,9-tetrahydro-3-hydroxy-9,9-dimethyl-N-[[2-(1-methylethoxy)phenyl]methyl]-4-oxo-] | 2 to 100
12 | CNC(=O)c1ncn(-c2cc(F)ccc2CNC(=O)c2nc3n(c(=O)c2O)CCOC3(C)C)n1 [Example 65, Pyrimido[2,1-c][1,4]oxazine-2-carboxamide, 4,6,7,9-tetrahydro-3-hydroxy-N-[(1R)-2-hydroxy-1-phenylethyl]-9,9-dimethyl-4-oxo-] | 2 to 100
13 | CN1CCN(C(=O)c2ccc(-c3ccccc3CNC(=O)c3nc4n(c(=O)c3O)CCOC4(C)C)cc2)CC1 [Example 196, Pyrimido[2,1-c][1,4]oxazine-2-carboxamide, 4,6,7,9-tetrahydro-3-hydroxy-9,9-dimethyl-N-[[4′-[(4-methyl-1-piperazinyl)carbonyl][1,1′-biphenyl]-2-yl]methyl]-4-oxo-] | 2 to 100
14 | CCOc1ccccc1CNC(=O)c1nc2n(c(=O)c1O)CCOC2(C)C [Example 243, Pyrimido[2,1-c][1,4]oxazine-2-carboxamide, N-[(2-ethoxyphenyl)methyl]-4,6,7,9-tetrahydro-3-hydroxy-9,9-dimethyl-4-oxo-] | 2 to 100
15 | CN(CCO)C(=O)c1ncn(-c2cc(F)ccc2CNC(=O)c2nc3n(c(=O)c2O)CCOC3(C)C)n1 [Example 67, Pyrimido[2,1-c][1,4]oxazine-2-carboxamide, N-[[4-fluoro-2-[3-[[(2-hydroxyethyl)methylamino]carbonyl]-1H-1,2,4-triazol-1-yl]phenyl]methyl]-4,6,7,9-tetrahydro-3-hydroxy-9,9-dimethyl-4-oxo-] | 2 to 100
16 | CC1(C)OCCn2c1nc(C(=O)NCc1cc(F)cc(F)c1)c(O)c2=O [Example 146, Pyrimido[2,1-c][1,4]oxazine-2-carboxamide, N-[(3,5-difluorophenyl)methyl]-4,6,7,9-tetrahydro-3-hydroxy-9,9-dimethyl-4-oxo-] | 2 to 100
17 | Cc1cccc(-c2ccccc2CNC(=O)c2nc3n(c(=O)c2O)CCOC3(C)C)c1 [Example 163, Pyrimido[2,1-c][1,4]oxazine-2-carboxamide, 4,6,7,9-tetrahydro-3-hydroxy-9,9-dimethyl-N-[(3′-methyl[1,1′-biphenyl]-2-yl)methyl]-4-oxo-] | 2 to 100
18 | CC1(C)OCCn2c1nc(C(=O)NCc1ccc(F)cc1OCC(=O)N1CCOCC1)c(O)c2=O [Example 46, Pyrimido[2,1-c][1,4]oxazine-2-carboxamide, N-[[4-fluoro-2-[2-(4-morpholinyl)-2-oxoethoxy]phenyl]methyl]-4,6,7,9-tetrahydro-3-hydroxy-9,9-dimethyl-4-oxo-] | 2 to 100
19 | COC(=O)c1ncn(-c2cc(F)ccc2CNC(=O)c2nc3n(c(=O)c2O)CCOC3(C)C)n1 [Example 60, 1H-1,2,4-Triazole-3-carboxylic acid, 1-[5-fluoro-2-[[[(4,6,7,9-tetrahydro-3-hydroxy-9,9-dimethyl-4-oxopyrimido[2,1-c][1,4]oxazin-2-yl)carbonyl]amino]methyl]phenyl], methyl este] | 2 to 100
20 | CCOc1cccc(CNC(=O)c2nc3n(c(=O)c2O)CCOC3(C)C)c1 [Example 249, Pyrimido[2,1-c][1,4]oxazine-2-carboxamide, N-[(3-ethoxyphenyl)methyl]-4,6,7,9-tetrahydro-3-hydroxy-9,9-dimethyl-4-oxo-] | 2 to 100
21 | CC1(C)OCCn2c1nc(C(=O)NCc1ccc(F)cc1N)c(O)c2=O [Example 134, Pyrimido[2,1-c][1,4]oxazine-2-carboxamide, N-[(2-amino-4-fluorophenyl)methyl]-4,6,7,9-tetrahydro-3-hydroxy-9,9-dimethyl-4-oxo-] | 2 to 100
22 | CC1(C)OCCn2c1nc(C(=O)NCc1ccccc1-c1ccccc1)c(O)c2=O [Example 160, Pyrimido [2,1-c][1,4]oxazine-2-carboxamide, N-([1,1′-biphenyl]-2-ylmethyl)-4,6,7,9-tetrahydro-3-hydroxy-9,9-dimethyl-4-oxo-] | 2 to 100
23 | Cc1ncn(-c2ccc(CNC(=O)c3nc4n(c(=O)c3O)CCOC4(C)C)c(F)c2)n1 [Example 83, Pyrimido[2,1-c][1,4]oxazine-2-carboxamide, N-[[2-fluoro-4-(3-methyl-1H-1,2,4-triazol-1-yl)phenyl]methyl]-4,6,7,9-tetrahydro-3-hydroxy-9,9-dimethyl-4-oxo-] | > 1000
24 | CNC(=O)c1cc(F)ccc1CNC(=O)c1nc2n(c(=O)c1O)CCCOC2(C)C [Example 118, 6H-Pyrimido[2,1-c][1,4]oxazepine-2-carboxamide, N-[[4-fluoro-2-[(methylamino)carbonyl]phenyl]methyl]-4,7,8,10-tetrahydro-3-hydroxy-10,10-dimethyl-4-oxo-] | 2 to 100
25 | CC(C)C1OCCn2c1nc(C(=O)NCc1ccc(F)cc1)c(O)c2=O (stereo not drawn) [Example 17, Pyrimido[2,1-c][1,4]oxazine-2-carboxamide, N-[(4-fluorophenyl)methyl]-4,6,7,9-tetrahydro-3-hydroxy-9-(1-methylethyl)-4-oxo-] | 2 to 100
26 | CC1(C)OCCn2c1nc(C(=O)NCc1ccc3c(c1)OCCO3)c(O)c2=O [Example 230, Pyrimido[2,1-c][1,4]oxazine-2-carboxamide, N-[(2,3-dihydro-1,4-benzodioxin-6-yl)methyl]-4,6,7,9-tetrahydro-3-hydroxy-9,9-dimethyl-4-oxo-] | 2 to 100
27 | CC1(C)OCCn2c1nc(C(=O)NCc1ccccc1-c1ccc(F)nc1)c(O)c2=O [Example 151] | 2 to 100
28 | CCOP(=O)(O)c1cc(F)ccc1CNC(=O)c1nc2n(c(=O)c1O)CCOC2(C)C [Example 282, Phosphonic acid, [5-fluoro-2-[[[(4,6,7,9-tetrahydro-3-hydroxy-9,9-dimethyl-4-oxopyrimido[2,1-c][1,4]oxazin-2-yl)carbonyl]amino]methyl]phenyl]-, monoethyl ester] | 2 to 100
29 | COc1ccc(CNC(=O)c2nc3n(c(=O)c2O)CCOC3(C)C)c(OC)c1 [Example 232, Pyrimido[2,1-c][1,4]oxazine-2-carboxamide, N-[(2,4-dimethoxyphenyl)methyl]-4,6,7,9-tetrahydro-3-hydroxy-9,9-dimethyl-4-oxo-] | 2 to 100

Same assay, conditions: Table 2a; read-out: HIV-Integrase Inhibition Activity

Row | Structure (SMILES) | IC50 [nM]
30 | CC1(C)OCCn2c1nc(C(=O)NCc1ccc(F)cc1SCCO)c(O)c2=O [Example 313, Pyrimido[2,1-c][1,4]oxazine-2-carboxamide, N-[[4-fluoro-2-[(2-hydroxyethyl)thio]phenyl]methyl]-4,6,7,9-tetrahydro-3-hydroxy-9,9-dimethyl-4-oxo-] | 2 to 100
